# pIC50: −log10 of the molar value. Counter-ions that a name gives are not always drawn.
# Columns and labels:
# [1] = test system: P. falciparum protein translation; assay: Global protein synthesis by radiolabeling parasite proteins after drug treatment; assay type: cell-based, Plasmodium falciparum; conditions: for Global protein synthesis after 23 h treatment of rings: 15 µM or 50>15 µM, BFA 5 µg/ml; for Global protein synthesis after 5 h treatment of trophozoites: 15 or 50 µM, BFA 10 µg/ml, 15 min labeling
# Protocol: To gain further insight into the effects of 916, 024, and 025 on parasites, we assessed global protein synthesis following drug treatment by radiolabeling parasite proteins. Treatment of trophozoites with inhibitor for 5 h prior to radiolabeling had no detectable effect on translation, even at 50 µM concentrations (Figure S4A), indicating the compounds are not direct inhibitors of the translation machinery. We next assessed protein synthesis following 23 h of drug treatment of ring stage parasites (aged 1–3 h old at the initiation of treatment). […] Indeed, Giemsa smears following treatment identified a small proportion of pyknotic parasites in the population (results not shown). […] It is possible that PMV inhibition by 916 treatment has a similar but weaker effect to BFA, in that it causes the accumulation of uncleaved PEXEL precursors in the ER, perturbing ER transport, and that this negatively affects translation by an ER stress response. An alternative possibility is that translation was decreased slightly as a result of parasites dying from 916-mediated impairment of erythrocyte remodeling. Either way, the profile for 916 was different to that seen for 024 and 025, even at 50 µM, indicating the latter analogs likely kill parasites via a different mechanism to 916.
# Whole parasite proteins were radiolabeled by culturing magnet-purified trophozoites (wild-type 3D7 or expressing PfEMP3-GFP) in Met/Cys-free medium for 30 min at 37°C before addition of 800 µCi/ml ^35S-Met/Cys (Perkin/Elmer) to the medium for the indicated times. Pellets were snap frozen in ethanol/dry ice bath and stored at −80°C. For radiolabeling in the presence of PMV inhibitor, parasites were treated with 20 µM WEHI-916 for 5 h before labeling commenced. For pulse-chases, proteins were radiolabeled in the presence or absence of inhibitor, as above, before further culture in radiolabel-free, inhibitor-free complete medium for the indicated times at 37°C before snap freezing. Frozen samples were either solubilized in Laemmli's buffer (Figure S4) or solubilized in 1% Triton X-100/PBS with protease inhibitor cocktail (Roche) and PfEMP3-GFP species immunopurified with α-GFP agarose (MBL) at 4°C for 2 h (Figures 3 and S3), and proteins were resolved by SDS-PAGE, visualized by autoradiography (7-d exposures), and quantified using a GS-800 Calibrated Densitometer (Bio-Rad).
# signal peptidase = assay: Signal peptide cleavage of SERA5s-GFP in parasites by immunoblot; assay type: cell-based, Plasmodium falciparum
# Protocol: This protein contains a signal peptide but lacks a PEXEL and is efficiently secreted to the parasitophorous vacuole (Figure S3B).
# (§1) Trophozoites (30–34 h) expressing PfEMP3-GFP, KAHRP-GFP, or SERA5s-GFP were magnet-purified (Miltenyi Biotech), incubated with inhibitors in 400 µl total volume at 37°C for 1–5 h, treated with 0.09% saponin containing inhibitor, and washed pellets were solubilized in Laemmli's buffer, boiled for 3 min, and frozen at −20°C. Proteins were separated by SDS-PAGE, transferred to nitrocellulose and blocked in 10% skim milk/PBS-T, and probed with rat α-HA (Roche 3F10; 1∶1,000), mouse α-GFP (Roche; 1∶1,000), rabbit α-Aldolase (1∶1,000), rabbit α-HSP70 (1∶4,000), rabbit α-PfPMV (1∶1,000), or rabbit α-Hyp8 (1∶500) primary antibodies followed by horseradish peroxidase-conjugated secondary antibodies (Silenius) and detected by enhanced chemiluminescence (Amersham).
# [2] = test system: Human Foreskin Fibroblasts (HFF); assay: Toxicity against Human Foreskin Fibroblasts; assay type: cell-based; conditions: Fibroblast
# HEpG2 cells = assay: Toxicity against human HEpG2 cells; assay type: cell-based; conditions: toxicity against human cell line
# [3] = target: PMV in P. falciparum–infected erythrocytes (Plasmodium falciparum, UniProt Q8I6Z5); assay: PEXEL processing of GFP reporters in parasites by immunoblot; assay type: cell-based; conditions: 5 h treatment, immunoblot
# Chain of PMV in P. falciparum–infected erythrocytes (Q8I6Z5 whole entry, the tested form may be a part): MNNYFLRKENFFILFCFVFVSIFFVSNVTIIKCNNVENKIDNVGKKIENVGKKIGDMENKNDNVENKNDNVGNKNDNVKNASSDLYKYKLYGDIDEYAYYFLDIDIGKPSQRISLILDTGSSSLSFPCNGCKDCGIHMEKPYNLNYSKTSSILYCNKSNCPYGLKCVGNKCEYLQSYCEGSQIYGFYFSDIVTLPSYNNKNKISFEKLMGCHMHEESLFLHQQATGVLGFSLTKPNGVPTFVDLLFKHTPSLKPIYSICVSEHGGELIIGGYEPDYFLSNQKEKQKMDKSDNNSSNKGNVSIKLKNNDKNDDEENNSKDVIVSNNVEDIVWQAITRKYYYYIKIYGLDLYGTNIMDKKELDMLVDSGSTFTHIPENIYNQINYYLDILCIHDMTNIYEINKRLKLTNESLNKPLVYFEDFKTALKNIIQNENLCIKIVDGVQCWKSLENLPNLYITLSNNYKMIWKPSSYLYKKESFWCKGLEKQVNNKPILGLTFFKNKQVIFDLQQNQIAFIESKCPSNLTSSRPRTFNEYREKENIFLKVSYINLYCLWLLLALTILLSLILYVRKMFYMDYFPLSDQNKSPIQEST
# Protocol: To assess whether 916 could inhibit PMV in P. falciparum–infected erythrocytes, parasites expressing the PEXEL protein P. falciparum erythrocyte membrane protein 3 (PfEMP3) fused to green fluorescent protein (GFP) were treated with increasing concentrations of inhibitor, and PEXEL processing was evaluated by immunoblot. […] A GFP-only band, representing degraded chimera in the food vacuole, was also observed at ∼26 kDa (Figure 3A).
# as §1
# PvPMV = PvPMV (Plasmodium vivax, UniProt A5K302); assay: PEXEL cleavage assay with immunopurified PvPMVHA and fluorogenic KAHRP PEXEL peptide; assay type: biochemical
# Chain of PvPMV (A5K302 35-536): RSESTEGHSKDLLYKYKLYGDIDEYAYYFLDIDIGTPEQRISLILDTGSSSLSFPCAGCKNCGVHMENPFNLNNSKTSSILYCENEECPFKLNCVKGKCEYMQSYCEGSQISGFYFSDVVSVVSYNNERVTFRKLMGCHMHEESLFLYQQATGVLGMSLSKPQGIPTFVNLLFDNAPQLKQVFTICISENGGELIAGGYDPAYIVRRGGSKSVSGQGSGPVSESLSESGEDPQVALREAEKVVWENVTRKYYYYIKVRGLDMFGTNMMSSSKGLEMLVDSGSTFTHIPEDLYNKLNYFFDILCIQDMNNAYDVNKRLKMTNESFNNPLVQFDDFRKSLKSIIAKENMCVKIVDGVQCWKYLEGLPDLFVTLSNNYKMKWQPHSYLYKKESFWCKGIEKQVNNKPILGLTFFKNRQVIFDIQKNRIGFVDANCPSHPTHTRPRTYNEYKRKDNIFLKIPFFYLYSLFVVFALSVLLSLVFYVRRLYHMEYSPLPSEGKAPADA
# Protocol: (§5) To investigate PvPMVHA activity, we affinity purified it, as well as the PfPMVHA control, using anti-HA agarose, as previously described [13],[18].
# (§6) PMV-agarose was prepared by adding α-HA-agarose (Sapphire Bioscience) to parasite lysates, prepared by sonication in 1% Triton X-100/PBS, for 1 h before extensive washing in same [12],[13]. […] Samples were excited at 340 nm and fluorescence emission measured at 492 nm using an Envision fluorescence plate reader (Perkin-Elmer) heated to 37°C for 150 min. Samples were shaken between measurements.
# PfPMV = PfPMV (Plasmodium falciparum, UniProt Q8I6Z5); assay: PEXEL cleavage assay with immunopurified PfPMVHA and fluorogenic KAHRP PEXEL peptide; assay type: biochemical; conditions: IC50 PfPMV, PfPMVHA
# Chain of PfPMV (Q8I6Z5 34-590): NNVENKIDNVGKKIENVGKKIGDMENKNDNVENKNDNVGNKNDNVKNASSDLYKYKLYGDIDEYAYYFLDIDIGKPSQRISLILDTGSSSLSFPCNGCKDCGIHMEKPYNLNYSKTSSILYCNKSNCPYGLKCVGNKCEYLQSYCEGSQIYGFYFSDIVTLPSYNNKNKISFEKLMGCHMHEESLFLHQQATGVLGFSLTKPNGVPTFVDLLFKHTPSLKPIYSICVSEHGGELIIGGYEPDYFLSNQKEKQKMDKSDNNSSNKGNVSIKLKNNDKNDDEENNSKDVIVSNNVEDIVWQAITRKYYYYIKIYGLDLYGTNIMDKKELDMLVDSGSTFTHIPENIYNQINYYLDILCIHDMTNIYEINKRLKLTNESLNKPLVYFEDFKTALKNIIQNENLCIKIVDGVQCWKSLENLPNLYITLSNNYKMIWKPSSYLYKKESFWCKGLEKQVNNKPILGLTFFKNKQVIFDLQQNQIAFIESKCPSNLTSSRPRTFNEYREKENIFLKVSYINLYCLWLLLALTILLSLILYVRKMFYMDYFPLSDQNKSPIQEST
# Protocol: (§2) To investigate PvPMVHA activity, we affinity purified it, as well as the PfPMVHA control, using anti-HA agarose, as previously described,[18]. […] The proteins were incubated with a fluorogenic peptide of nine amino acids that contained the PEXEL sequence from knob-associated histidine-rich protein (KAHRP), and efficient processing was observed by both enzymes (Figure 1E). Cleavage of KAHRP by PfPMVHA was previously shown to occur after Leu (RTL↓) by mass spectrometry, and this position was also confirmed for PvPMVHA (Figure S2B–E). […] In contrast, no processing was observed when the PEXEL Arg and Leu residues were mutated to Ala (ATAAQ), consistent with the substrate specificity of PfPMV (Figure 1E). To verify that processing was due to HA-tagged PMV rather than other co-precipitated proteases, we expressed in P. falciparum a mutant of PvPMVHA or PfPMVHA [13], where one or both catalytic Asp residues were mutated to Ala (see Figure 1A,B). Following affinity purification, the mutant enzymes were incubated with KAHRP PEXEL peptides, but no processing was observed (Figure 1E; blue, white), confirming that the PEXEL-dependent cleavage activity observed for each protease was attributable only to HA-tagged PMV.
# (§3) Each compound was incubated with PfPMVHA in the presence of KAHRP PEXEL peptides.
# (§4) PMV-agarose was prepared by adding α-HA-agarose (Sapphire Bioscience) to parasite lysates, prepared by sonication in 1% Triton X-100/PBS, for 1 h before extensive washing in same,[13]. PEXEL cleavage assays (20 µl total volume) consisted of 0.2 µl PMV-agarose in digest buffer (25 mM Tris, 25 mM MES, pH 6.4) with 1.5 µM FRET peptide substrate (DABCYL-[…]-E-EDANS, DABCYL-[…]-E-EDANS, LifeTein; DABCYL-[…]-E-EDANS, DABCYL-[…]-E-EDANS; Mimotopes) ± inhibitor. Samples were excited at 340 nm and fluorescence emission measured at 492 nm using an Envision fluorescence plate reader (Perkin-Elmer) heated to 37°C for 150 min. Samples were shaken between measurements. For determination of the peptide cleavage position by PvPMVHA, the fluorogenic peptide (DABCYL-[…]-E-EDANS), representing the wild-type KAHRP PEXEL sequence, was incubated with and without PvPMVHA at 37°C for 48 h. Products of the incubation were detected by a molecular formula algorithm using an Agilent 6200 TOF/6500 series mass spectrometer.
# [4] = test system: CC(C)C[C@H](NC(=O)[C@@H](NC(=O)[C@H](CCCNC(=N)N)NC(=O)[C@H](CCCCN)NC(=O)[C@H](CC(N)=O)NC(=O)[C@H](CCCNC(=N)N)NC(=O)c1ccc(N=Nc2ccc(N(C)C)cc2)cc1)[C@@H](C)O)C(=O)N[C@@H](C)C(=O)N[C@@H](CCC(N)=O)C(=O)N[C@@H](CCCCN)C(=O)N[C@@H](CCC(N)=O)C(=O)N[C@@H](CCC(=O)NCCNc1cccc2c(S(=O)(=O)O)cccc12)C(N)=O; assay: as above; assay type: biochemical, Plasmodium falciparum; conditions: other: Michaelis–Menten, 2 h; pH 6.4; 37.0 °C
# Protocol: as §2, §3, §4
# [5] = test system: CC(C)C[C@H](NC(=O)[C@@H](NC(=O)[C@H](CCCNC(=N)N)NC(=O)[C@H](CCCCN)NC(=O)[C@H](CC(N)=O)NC(=O)[C@H](CCCNC(=N)N)NC(=O)c1ccc(N=Nc2ccc(N(C)C)cc2)cc1)[C@@H](C)O)C(=O)N[C@@H](C)C(=O)N[C@@H](CCC(N)=O)C(=O)N[C@@H](CCCCN)C(=O)N[C@@H](CCC(N)=O)C(=O)N[C@@H](CCC(=O)NCCNc1cccc2c(S(=O)(=O)O)cccc12)C(N)=O; assay: PEXEL cleavage assay with immunopurified PvPMVHA and fluorogenic KAHRP PEXEL peptide; assay type: biochemical, Plasmodium vivax; conditions: other: Michaelis–Menten, 2 h; pH 6.4; 37.0 °C
# Protocol: as §5, §6
molecule,measurement,setting,value
"C[C@H]1CCC/C=C/[C@@H]2C[C@H](O)C[C@H]2[C@H](O)/C=C/C(=O)O1 [Brefeldin A, reference compound]",Global protein synthesis after 23 h treatment of rings,[1],severely impaired translation
same,Global protein synthesis after 23 h treatment of rings,[1]; listed as BFA,severely reduced translation
same,Global protein synthesis after 5 h treatment of trophozoites,[1],no defect in global protein synthesis
"CC(C)C[C@H](NC(=O)[C@@H](NC(=O)[C@H](CCCCN)NS(=O)(=O)Cc1ccccc1)C(C)C)[C@@H](O)CC(=O)NCCc1ccccc1 [compound 024, PhCH2SO2-Lys(NH2)-Val-Sta-NH(CH2)2Ph .TFA]","Signal peptide cleavage of SERA5s-GFP, in words",signal peptidase; 20 µM for 5 h,no defect
same,"Effect on PMV or signal peptidase activity in parasites, in words",signal peptidase; concentrations up to 50 µM,no affect
same,Global protein synthesis after 23 h treatment of rings,[1],no defect in global protein synthesis
same,Global protein synthesis after 5 h treatment of trophozoites,[1],no defect in global protein synthesis
same,pIC50,[2],< 4.00
same,pIC50,HEpG2 cells,< 4.00
same,"PEXEL processing of KAHRP-GFP in parasites, in words",[3]; 20 and 50 µM,no effect
same,"PEXEL processing of PfEMP3-GFP in parasites, in words",[3]; up to 50 µM,no effect
same,"Activity against PvPMVHA, in words",PvPMV,weak activity
same,pIC50,PvPMV,< 4.00
same,pIC50,PfPMV,< 4.00
PfPMV (Plasmodium falciparum 3D7),Km,[4],11.7 (±1.8) µM
PvPMV (Plasmodium vivax Sal-1),Km,[5],9.7 (±3.0) µM
